In PubChem BioAssay AID2060505 (Molecular Pharmacology Branch, DTP, NCI, 2025):
pIC50: −log10 of the molar value.

Tested on: 633275-114-R-J1-PDC complex spheroids, viability
Assay: Anticancer human tumor 633275-114-R-J1-PDC patient-derived endometrial adenocarcinoma cell line growth inhibition [GQUAD]
Details: for pIC50: curve of first compound; for viability, T/C: stronger effect = lower value
How it was run: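 Multi-cell-type spheroids of tumor cells with HUVEC and mesenchymal stem cells, treated with drug combinations. Concentrations descend in half-log steps from near clinical Cmax, or from 10 microM where Cmax is unknown; viability read-out.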

[1] = second compound 0.0316 µM, first compound 0.0316 µM
[2] = second compound 0.0316 µM, first compound 0.1 µM
[3] = second compound 0.0316 µM, first compound 0.316 µM
[4] = second compound 0.0316 µM, first compound 1 µM
[5] = second compound 0.0316 µM, first compound 3.16 µM
[6] = second compound 0.0316 µM, first compound 10 µM
[7] = second compound 0.1 µM, first compound 0.0316 µM
[8] = second compound 0.1 µM, first compound 0.1 µM
[9] = second compound 0.1 µM, first compound 0.316 µM
[10] = second compound 0.1 µM, first compound 1 µM
[11] = second compound 0.1 µM, first compound 3.16 µM
[12] = second compound 0.1 µM, first compound 10 µM
[13] = second compound 0.316 µM, first compound 0.0316 µM
[14] = second compound 0.316 µM, first compound 0.1 µM
[15] = second compound 0.316 µM, first compound 0.316 µM
[16] = second compound 0.316 µM, first compound 1 µM
[17] = second compound 0.316 µM, first compound 3.16 µM
[18] = second compound 0.316 µM, first compound 10 µM
[19] = second compound 1 µM, first compound 0.0316 µM
[20] = second compound 1 µM, first compound 0.1 µM
[21] = second compound 1 µM, first compound 0.316 µM
[22] = second compound 1 µM, first compound 1 µM
[23] = second compound 1 µM, first compound 3.16 µM
[24] = second compound 1 µM, first compound 10 µM
[25] = second compound 3.16 µM, first compound 0.0316 µM
[26] = second compound 3.16 µM, first compound 0.1 µM
[27] = second compound 3.16 µM, first compound 0.316 µM
[28] = second compound 3.16 µM, first compound 1 µM
[29] = second compound 3.16 µM, first compound 3.16 µM
[30] = second compound 3.16 µM, first compound 10 µM
[31] = second compound 10 µM, first compound 0.0316 µM
[32] = second compound 10 µM, first compound 0.1 µM
[33] = second compound 10 µM, first compound 0.316 µM
[34] = second compound 10 µM, first compound 1 µM
[35] = second compound 10 µM, first compound 3.16 µM
[36] = second compound 10 µM, first compound 10 µM
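Also: spheroids exposed to the agents for seven days.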
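For viability, T/C in this document: percent of DMSO vehicle control viability which is 100%.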

Compound: COc1ncnc(C2CC2)c1-c1ncc2cnn(Cc3ccc(-c4nc(C(F)(F)F)cn4C(C)C)cc3)c2n1 + Cc1[nH]c2ccc(F)cc2c1-c1nc2c3cccnc3c3ncccc3c2[nH]1
- pIC50 (second compound 0.0316 µM): < 5.00
- pIC50 (second compound 0.1 µM): < 5.00
- pIC50 (second compound 0.316 µM): < 5.00
- pIC50 (second compound 1 µM): < 5.00
- pIC50 (second compound 3.16 µM): < 5.00
- pIC50 (second compound 10 µM): < 5.00
- viability, T/C [1]: 95.6%
- viability, T/C [2]: 91.5%
- viability, T/C [3]: 100%
- viability, T/C [4]: 93.2%
- viability, T/C [5]: 91.4%
- viability, T/C [6]: 89.8%
- viability, T/C [7]: 98.2%
- viability, T/C [8]: 102%
- viability, T/C [9]: 89.5%
- viability, T/C [10]: 96.7%
- viability, T/C [11]: 92.1%
- viability, T/C [12]: 87.7%
- viability, T/C [13]: 93.4%
- viability, T/C [14]: 87.9%
- viability, T/C [15]: 87.3%
- viability, T/C [16]: 82.3%
- viability, T/C [17]: 99.7%
- viability, T/C [18]: 91.8%
- viability, T/C [19]: 86.7%
- viability, T/C [20]: 90%
- viability, T/C [21]: 93.2%
- viability, T/C [22]: 81.3%
- viability, T/C [23]: 93.5%
- viability, T/C [24]: 87.1%
- viability, T/C [25]: 70%
- viability, T/C [26]: 78.4%
- viability, T/C [27]: 64.1%
- viability, T/C [28]: 62.7%
- viability, T/C [29]: 73.2%
- viability, T/C [30]: 67%
- viability, T/C [31]: 59.8%
- viability, T/C [32]: 63.1%
- viability, T/C [33]: 56%
- viability, T/C [34]: 60.5%
- viability, T/C [35]: 62.3%
- viability, T/C [36]: 60.3%

Compound: Cc1[nH]c2ccccc2c1CCNCc1ccc(/C=C/C(=O)NO)cc1 + Cc1[nH]c2ccc(F)cc2c1-c1nc2c3cccnc3c3ncccc3c2[nH]1
- pIC50 (second compound 0.0316 µM): 7.20
- pIC50 (second compound 0.1 µM): 7.08
- pIC50 (second compound 0.316 µM): 7.18
- pIC50 (second compound 1 µM): 7.26
- pIC50 (second compound 3.16 µM): 7.68
- pIC50 (second compound 10 µM): 7.79
- viability, T/C (second compound 0.0316 µM, first compound 0.000999 µM): 103%
- viability, T/C (second compound 0.0316 µM, first compound 0.00316 µM): 85.6%
- viability, T/C (second compound 0.0316 µM, first compound 0.00999 µM): 79.1%
- viability, T/C [1]: 64.2%
- viability, T/C (second compound 0.0316 µM, first compound 0.0999 µM): 41.4%
- viability, T/C [3]: 19.3%
- viability, T/C (second compound 0.1 µM, first compound 0.000999 µM): 90.6%
- viability, T/C (second compound 0.1 µM, first compound 0.00316 µM): 90.4%
- viability, T/C (second compound 0.1 µM, first compound 0.00999 µM): 81.6%
- viability, T/C [7]: 70.5%
- viability, T/C (second compound 0.1 µM, first compound 0.0999 µM): 46.1%
- viability, T/C [9]: 17.3%
- viability, T/C (second compound 0.316 µM, first compound 0.000999 µM): 94%
- viability, T/C (second compound 0.316 µM, first compound 0.00316 µM): 94%
- viability, T/C (second compound 0.316 µM, first compound 0.00999 µM): 71.2%
- viability, T/C [13]: 62.3%
- viability, T/C (second compound 0.316 µM, first compound 0.0999 µM): 44.8%
- viability, T/C [15]: 19.7%
- viability, T/C (second compound 1 µM, first compound 0.000999 µM): 87.6%
- viability, T/C (second compound 1 µM, first compound 0.00316 µM): 78.7%
- viability, T/C (second compound 1 µM, first compound 0.00999 µM): 71.7%
- viability, T/C [19]: 57.2%
- viability, T/C (second compound 1 µM, first compound 0.0999 µM): 41.9%
- viability, T/C [21]: 21.2%
- viability, T/C (second compound 3.16 µM, first compound 0.000999 µM): 69.8%
- viability, T/C (second compound 3.16 µM, first compound 0.00316 µM): 64.9%
- viability, T/C (second compound 3.16 µM, first compound 0.00999 µM): 53.6%
- viability, T/C [25]: 45.1%
- viability, T/C (second compound 3.16 µM, first compound 0.0999 µM): 41.3%
- viability, T/C [27]: 21.7%
- viability, T/C (second compound 10 µM, first compound 0.000999 µM): 62%
- viability, T/C (second compound 10 µM, first compound 0.00316 µM): 65.4%
- viability, T/C (second compound 10 µM, first compound 0.00999 µM): 48.7%
- viability, T/C [31]: 45.5%
- viability, T/C (second compound 10 µM, first compound 0.0999 µM): 36.4%
- viability, T/C [33]: 20.8%

Compound: O=C(NO)c1cnc(N2CCN(S(=O)(=O)c3ccc4ccccc4c3)CC2)nc1 + Cc1[nH]c2ccc(F)cc2c1-c1nc2c3cccnc3c3ncccc3c2[nH]1
- pIC50 (second compound 0.0316 µM): 6.43
- pIC50 (second compound 0.1 µM): 6.28
- pIC50 (second compound 0.316 µM): 6.24
- pIC50 (second compound 1 µM): 6.31
- pIC50 (second compound 3.16 µM): 6.47
- pIC50 (second compound 10 µM): 6.44
- viability, T/C [1]: 88.1%
- viability, T/C [2]: 77.9%
- viability, T/C [3]: 51.7%
- viability, T/C [4]: 29%
- viability, T/C [5]: 16.9%
- viability, T/C [6]: 5.26%
- viability, T/C [7]: 91.7%
- viability, T/C [8]: 83.9%
- viability, T/C [9]: 63.5%
- viability, T/C [10]: 32.1%
- viability, T/C [11]: 16%
- viability, T/C [12]: 3.49%
- viability, T/C [13]: 82.3%
- viability, T/C [14]: 86.2%
- viability, T/C [15]: 62.4%
- viability, T/C [16]: 34.7%
- viability, T/C [17]: 18.5%
- viability, T/C [18]: 1.56%
- viability, T/C [19]: 91.3%
- viability, T/C [20]: 77.2%
- viability, T/C [21]: 57.9%
- viability, T/C [22]: 37%
- viability, T/C [23]: 17.2%
- viability, T/C [24]: 1.48%
- viability, T/C [25]: 72.3%
- viability, T/C [26]: 60.2%
- viability, T/C [27]: 52.6%
- viability, T/C [28]: 35.2%
- viability, T/C [29]: 15.8%
- viability, T/C [30]: 2.67%
- viability, T/C [31]: 62.1%
- viability, T/C [32]: 58.3%
- viability, T/C [33]: 54.8%
- viability, T/C [34]: 32.5%
- viability, T/C [35]: 17.8%
- viability, T/C [36]: 3.92%

Compound: COc1ccc([C@@H](O)c2cc(-c3ncnc4cc(N5CCOCC5)ccc34)c(F)cc2Cl)nn1 + Cc1cnc(CNC(=O)c2c(=O)c3ccc(N4CCCN(C)CC4)nc3n3c2sc2ccccc23)cn1
- pIC50 (second compound 0.0316 µM): 6.75
- pIC50 (second compound 0.1 µM): 7.22
- pIC50 (second compound 0.316 µM): > 7.50
- pIC50 (second compound 1 µM): > 7.50
- pIC50 (second compound 3.16 µM): > 7.50
- pIC50 (second compound 10 µM): > 7.50
- viability, T/C [1]: 59.8%
- viability, T/C [2]: 60.3%
- viability, T/C [3]: 40.9%
- viability, T/C [4]: 29.2%
- viability, T/C [5]: 19.2%
- viability, T/C [6]: 12.2%
- viability, T/C [7]: 51.5%
- viability, T/C [8]: 50.5%
- viability, T/C [9]: 36.1%
- viability, T/C [10]: 25%
- viability, T/C [11]: 18.8%
- viability, T/C [12]: 11.2%
- viability, T/C [13]: 48.6%
- viability, T/C [14]: 45.7%
- viability, T/C [15]: 30.1%
- viability, T/C [16]: 24.9%
- viability, T/C [17]: 20.6%
- viability, T/C [18]: 11.9%
- viability, T/C [19]: 40.2%
- viability, T/C [20]: 37.9%
- viability, T/C [21]: 28.4%
- viability, T/C [22]: 24.6%
- viability, T/C [23]: 18.1%
- viability, T/C [24]: 11.1%
- viability, T/C [25]: 34%
- viability, T/C [26]: 29.4%
- viability, T/C [27]: 27.6%
- viability, T/C [28]: 21.8%
- viability, T/C [29]: 18.7%
- viability, T/C [30]: 11.5%
- viability, T/C [31]: 30.8%
- viability, T/C [32]: 27.5%
- viability, T/C [33]: 28.6%
- viability, T/C [34]: 19.9%
- viability, T/C [35]: 16%
- viability, T/C [36]: 3.93%
